Results published in paper PMC8841740, “Fluorescent Ligand-Based Discovery of Small-Molecule Sulfonamide Agonists for GPR120” (Frontiers in Chemistry, 2022).
Values belong to the compound of their own block, whether it stands above or below them.

How the values were obtained:
GPR120 [1] = biological target: T1, GPR120 (Homo sapiens, UniProt Q5NUL3); assay: BRET activity test (β-arrestin-2 recruitment, GPR120-YFP / β-arrestin-2-Rluc in HEK293 cells); assay type: cell-based; parameters: host or cells: HEK293 (transfected with both plasmids); conditions: for Emax (FFA4 β-arrestin2): GSK137647A used as a standard
T1 sequence (Q5NUL3 1-361): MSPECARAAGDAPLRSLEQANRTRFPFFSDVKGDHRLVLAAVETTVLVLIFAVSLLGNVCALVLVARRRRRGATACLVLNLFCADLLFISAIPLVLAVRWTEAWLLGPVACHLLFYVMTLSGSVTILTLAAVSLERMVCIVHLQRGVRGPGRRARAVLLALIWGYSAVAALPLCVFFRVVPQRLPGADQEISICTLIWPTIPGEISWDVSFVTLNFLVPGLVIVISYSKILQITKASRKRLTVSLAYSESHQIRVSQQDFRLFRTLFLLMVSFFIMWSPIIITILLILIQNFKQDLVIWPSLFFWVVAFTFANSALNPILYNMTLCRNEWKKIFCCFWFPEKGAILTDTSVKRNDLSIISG
Experimental: GPR120-YFP and β-arresting-2-Rluc plasmids were transfected into HEK293 cells. After a 24-h incubation, the cells were seeded in a black 96-well plate (100 μl, 20,000 cells per well). Followed by a 24-h incubation, the solution was removed from the plate, and compounds with different concentrations (100 μl per well) and coelenterazine (10 μM, 100 μl per well) were added, followed by the fluorescence intensity was measured at 460 and 520 nm with the microplate reader ([Christiansen et al., 2016]; [Hill et al., 2018]).

GPR40 = biological target: T2, GPR40 (Homo sapiens, UniProt O14842); assay: GPR40 Ca2+ flow assay in CHO cells with transient GPR40 gene; assay type: cell-based; conditions: CHO cells, GPR40; read-out: FFA1 (Ca2+ pEC50) (converted)
T2 construct: expressed in transfected cells; host or cells: CHO (transient)
Experimental: Ca^2+ flow activity was determined in HEK293 cells stably transfecting the GPR120-Rluc gene. After incubating the cells for 24 h, the medium was removed from the plate, and the cells were washed with HBSS buffer (without Ca^2+ and Mg^2+). Subsequently, a 2-μM Fluo-4 AM working solution in HBSS buffer (without Ca^2+ and Mg^2+) was added to the plate (40 μl per well). After incubating the cells for 20 min at 37°C, compound solution at different concentrations in HBSS buffer (per well 160 μl) was added. Followed by a 40-min incubation, the solution was removed from the plate, HEPES buffer (200 μl per well) was added, and the fluorescence intensity was detected using the microplate reader (Ex: 488 nm; Em: 520 nm) ([Watterson et al., 2017]).
Ca^2+ flow activity was determined in CHO cells with transient GPR40 gene by the same method as well, in which the GPR40 agonist TAK875 was used as a positive control.

GPR120 [2] = biological target: T1, GPR120; assay: Preliminary screening of agonists by BRET competition with probe N1; assay type: binding; parameters: expressed in transfected cells; conditions: 10 μM compound, probe N1 400 nM
Experimental: HEK293 cells stably transfected with the GPR120-Rluc gene were seeded in a black 96-well plate (100 μl, 2 × 10^4 cells per well). After a 24-h incubation, the medium was removed, probe N1 (400 nM, 50 μl per well) was added, and 10 μM of the compound was added after a 30-min incubation as well. Followed by a 40-min incubation, coelenterazine (final concentration: 10 μM, 50 μl per well) was added to the plate. Afterward, the fluorescence intensity was measured at 450 and 550 nm with the microplate reader after another 10-min incubation.

GPR120 [3] = biological target: T1, GPR120; assay: GPR120 Ca2+ flow assay in HEK293 cells stably transfecting the GPR120-Rluc gene; assay type: cell-based; parameters: expressed in transfected cells; conditions: for Emax (FFA4 Ca2+): GSK137647A used as a standard
Experimental: Ca^2+ flow activity was determined in HEK293 cells stably transfecting the GPR120-Rluc gene. After incubating the cells for 24 h, the medium was removed from the plate, and the cells were washed with HBSS buffer (without Ca^2+ and Mg^2+). Subsequently, a 2-μM Fluo-4 AM working solution in HBSS buffer (without Ca^2+ and Mg^2+) was added to the plate (40 μl per well).

[4] = Optical property of fluorescent probes; assay type: physicochemical; conditions: for λabs: MeCN; for Φ (absolute quantum yield) / λem / λex: PBS; for SS (stokes shift): PBS buffer (pH = 7.4)
Experimental: The stocking solution of probes was diluted with acetonitrile to 40 μM, and their ultraviolet absorption spectrum was scanned with an ultraviolet spectrophotometer. Secondly, the excitation and emission spectra of probes at 10, 20, 30, and 40 μM with PBS buffer were measured with a microplate reader. Moreover, the excitation and emission spectrum were recorded in four solvents: MeCN, DMSO, H2O, and EA, respectively.

GPR120 [5] = conditions: cited from earlier work
[6] = Table 3, read-out: FFA4 (β-arrestin2 pEC50) (converted)
[7] = Table 3, read-out: FFA4 (Ca2+ pEC50) (converted)
[8] = GPR120, β-arrestin-2 activity test, read-out: pEC50 BRET (converted)
[9] = GPR120, Ca2+ flow, HEK293 GPR120-Rluc cells, read-out: pEC50 Ca2+ assay (converted)

SMILES: Cc1cc(C)c(NS(=O)(=O)c2ccc(-c3ccc(Br)cc3)cc2)c(C)c1 [Compound B3, 4′-Bromo-N-Mesityl-[1,1′-Biphenyl]-4-Sulfonamide]
melting point: 176 to 177 °C

SMILES: Cc1cc(C)c(NS(=O)(=O)c2ccc(-c3ccc(F)cc3)cc2)c(C)c1 [Compound B2, 4′-Fluoro-N-Mesityl-[1,1′-Biphenyl]-4-Sulfonamide]
melting point: 214 to 215 °C

SMILES: Cc1cc(C)c(NS(=O)(=O)c2ccc(-c3ccc(N)c(F)c3)cc2)c(C)c1 [Compound B6, 4′-Amino-3′-Fluoro-N-Mesityl-[1,1′-Biphenyl]-4-Sulfonamide]
Emax (FFA4 β-arrestin2) (GPR120 [1]): 0.881
EC50 (GPR120 [1]; [6]): 132 nM
EC50 (GPR40): > 50100 nM
inhibition rate in BRET screening compared with GSK137647A (GPR120 [2]): higher than GSK137647A
Emax (FFA4 Ca2+) (GPR120 [3]): 1.25
EC50 (GPR120 [3]; [7]): 204 nM
melting point: 176 to 177 °C

SMILES: Cc1ccc(S(=O)(=O)NC2c3ccccc3Oc3ccccc32)cc1 [AH-7614]
pEC50 (Literature) (GPR120 [5]): <4.5^16

SMILES: Cc1cc(C)c(NS(=O)(=O)c2ccc(-c3ccc(Cl)cc3)cc2)c(C)c1 [Compound B8, 4′-Chloro-N-Mesityl-[1,1′-Biphenyl]-4-Sulfonamide]
melting point: 214 to 215 °C

SMILES: Cc1cc(C)c(NS(=O)(=O)c2ccc(-c3ccc4ccccc4c3)cc2)c(C)c1 [Compound B7, N-Mesityl-4-(Naphthalen-2-yl)benzenesulfonamide]
Emax (FFA4 β-arrestin2) (GPR120 [1]): 0.894
EC50 (GPR120 [1]; [6]): 19.5 nM
EC50 (GPR40): > 50100 nM
inhibition rate in BRET screening compared with GSK137647A (GPR120 [2]): higher than GSK137647A
Emax (FFA4 Ca2+) (GPR120 [3]): 0.285
EC50 (GPR120 [3]; [7]): 138 nM
melting point: 211 to 212 °C

SMILES: Cc1cc(C)c(NS(=O)(=O)c2ccc(-c3ccccc3)cc2)c(C)c1 [Compound B1, N-Mesityl-[1,1′-biphenyl]-4-sulfonamide]
melting point: 165 to 166 °C

SMILES: Cc1ccc(-c2ccc(S(=O)(=O)Nc3c(C)cc(C)cc3C)cc2)cc1 [Compound B4, N-Mesityl-4′-Methyl-[1,1′-Biphenyl]-4-Sulfonamide]
melting point: 195 to 196 °C

SMILES: Cc1cc(C)c(NS(=O)(=O)c2ccc(-c3ccc(OC(F)(F)F)cc3)cc2)c(C)c1 [Compound B5, N-Mesityl-4′-(Trifluoromethoxy)-[1,1′-Biphenyl]-4-Sulfonamide]
Emax (FFA4 β-arrestin2) (GPR120 [1]): 0.790
EC50 (GPR120 [1]; [6]): 43.7 nM
EC50 (GPR40): > 50100 nM
inhibition rate in BRET screening compared with GSK137647A (GPR120 [2]): higher than GSK137647A
Emax (FFA4 Ca2+) (GPR120 [3]): 1.27
EC50 (GPR120 [3]; [7]): 81.3 nM
melting point: 169 to 170 °C

Results, then the compound that gave them:

EC50 (GPR120 [1]; [8]): 1780 nM
λabs [4]: 417 nm
Φ (absolute quantum yield) [4]: 1.03%
λem [4]: 560 nm
λex [4]: 438 nm
SS (stokes shift) [4]: 122 nm
EC50 (GPR120 [3]; [9]): 8910 nM
melting point: 184 to 185 °C
SMILES: Cc1cc(C)c(NS(=O)(=O)c2ccc(NCCCCN3C(=O)c4cccc5c(N(C)C)ccc(c45)C3=O)cc2)c(C)c1 [Compound N3, 4-((4-(6-(Dimethylamino)-1,3-dioxo-1H-benzo[de]isoquinolin-2(3H)-yl)butyl)amino)-N-mesitylbenzenesulfonamide]

melting point: 144 to 145 °C
SMILES: O=S(=O)(Nc1ccc(Oc2ccccc2)cc1)c1ccc(-c2ccc(OC(F)(F)F)cc2)cc1 [Compound D4, N-(4-Phenoxyphenyl)-4′-(Trifluoromethoxy)-[1,1′-Biphenyl]-4-Sulfonamide]

melting point: 145 to 146 °C
SMILES: COc1ccc(NS(=O)(=O)c2ccc(-c3ccc(OC(F)(F)F)cc3)cc2)cc1OC [Compound D1, N-(3,4-Dimethoxyphenyl)-4′-(Trifluoromethoxy)-[1,1′-Biphenyl]-4-Sulfonamide]

melting point: 152 to 153 °C
SMILES: Cc1cc(C)cc(COc2ccc(S(=O)(=O)Nc3c(C)cc(C)cc3C)cc2)c1 [Compound C1, 4-((3,5-Dimethylbenzyl)oxy)-N-mesitylbenzenesulfonamide]

Emax (FFA4 β-arrestin2) (GPR120 [1]): 1.17
EC50 (GPR120 [1]; [6]): 16.6 nM
EC50 (GPR40): > 50100 nM
inhibition rate in BRET screening compared with GSK137647A (GPR120 [2]): higher than GSK137647A
Emax (FFA4 Ca2+) (GPR120 [3]): 0.752
EC50 (GPR120 [3]; [7]): 129 nM
melting point: 175 to 176 °C
SMILES: O=S(=O)(Nc1ccc(Cl)cc1Cl)c1ccc(-c2ccc3ccccc3c2)cc1 [Compound D7, N-(2,4-Dichlorophenyl)-4-(naphthalen-2-yl)benzenesulfonamide]

EC50 (GPR120 [1]; [8]): 562 nM
λabs [4]: 418 nm
Φ (absolute quantum yield) [4]: 2.28%
λem [4]: 562 nm
λex [4]: 439 nm
SS (stokes shift) [4]: 123 nm
EC50 (GPR120 [3]; [9]): 6310 nM
melting point: 103 to 104 °C
SMILES: Cc1cc(C)c(NS(=O)(=O)c2ccc(NCCCN3C(=O)c4cccc5c(N(C)C)ccc(c45)C3=O)cc2)c(C)c1 [Compound N2, 4-((3-(6-(Dimethylamino)-1,3-dioxo-1H-benzo[de]isoquinolin-2(3H)-yl)propyl)amino)-N-mesitylbenzenesulfonamide]

melting point: 154 to 155 °C
SMILES: Cc1cc(C)c(NS(=O)(=O)c2ccc(OCc3c(F)cccc3C(F)(F)F)cc2)c(C)c1 [Compound C2, 4-((2-Fluoro-6-(trifluoromethyl)benzyl)oxy)-N-mesitylbenzenesulfonamide]

melting point: 161 to 162 °C
SMILES: Cc1cc(C)c(NS(=O)(=O)c2ccc(OCc3ccc(Br)cc3)cc2)c(C)c1 [Compound C3, 4-((4-Bromobenzyl)oxy)-N-mesitylbenzenesulfonamide]

melting point: 139 to 140 °C
SMILES: O=S(=O)(Nc1ccc(OC(F)(F)F)cc1)c1ccc(-c2ccc(OC(F)(F)F)cc2)cc1 [Compound D2, 4′-(Trifluoromethoxy)-N-(4-(Trifluoromethoxy)phenyl)-[1,1′-Biphenyl]-4-Sulfonamide]

melting point: 136 to 137 °C
SMILES: COc1cc(NS(=O)(=O)c2ccc(-c3ccc(OC(F)(F)F)cc3)cc2)cc(OC)c1OC [Compound D3, 4′-(Trifluoromethoxy)-N-(3,4,5-Trimethoxyphenyl)-[1,1′-Biphenyl]-4-Sulfonamide]
